The values that follow come from the NIST ThermoML archive (doi:10.1021/je0603067).

Numbers after ± are expanded uncertainties.

The conditions of the data set: Crystal; Heating/Cooling curves.
Consider `O=C=O` [carbon dioxide], for which the Triple point temperature was found to be 216.56 ± 0.2 K. Then `[N-]=[N+]=O` [nitrous oxide], with 181.99 ± 0.2 K. Then `FC(F)C(F)(F)F` [pentafluoroethane], with 173.05 ± 0.2 K.
